Measured values published in patent US7772260B2, “Imidazo[2,1-b]-1,3,4-thiadiazole sulfonamides” (Aegera Therapeutics Inc., priority 2001, dated 2010).
pIC50: −log10 of the molar value. Entries after “also recorded” stand apart in the source; their conditions may differ.

How the values were obtained:
Sprague Dawley rats = assay type: in vivo
Protocol: Taxol™ commonly causes dose dependent peripheral neuropathies during cancer treatment. […] All of the Taxol™ treated animals developed peripheral neuropathies, characterized by ‘tip toe walking’. The extent of this neuropathy was analyzed by quantifying the refracted light captured by a video camera as the animals walked over a glass plate.
Adult Sprague Dawley rats were treated with Taxol™ (IP, 9 mg/kg in Cremophor EL and ethanol) twice weekly for 3 weeks (J. Neuro-Oncology (1999) 41: 107-116). Compound was administered I hour prior to Taxol™ treatment (IP, 1, 5 and 10 mg/kg in hydroxypropyl-β-cyclodextrin). Taxol™ treated control animals were treated with saline solution at the same time of Compound treated animals. Non-treated control animals were treated with saline solution as above. Weight gain was measured every second day, starting at Day 1. Gait analysis was measured by quantifying the refracted light captured by a video camera as the animals walked over a glass plate, 2 days after the final Taxol™ treatment (Physiology and Behavior (1994), 55(4): 723-726; Med. Sci. Res. (1988) 16: 901-902). […] H/M wave recovery was analyzed using standard procedures 2 days after the final Taxol™ treatment (Muscle Nerve (1998) 21: 1405-1413; Annals of Neurology (1998) 43 (1): 46-55).
(§1) Male Spraugue Dawley rats were treated with 50% HPDC vehicle (veh/veh), compound I dissolved in 50% HPDC at 1, 5, or 10 mg/kg (veh/1, veh/5, veh/10, respectively), or Taxol™ (9 mg/kg)+compound 1 dissolved in 50% HPDC at 1, 5, and 10 mg/kg (Tax/1, Tax/5, Tax/10) according to the dosing regime described in Example 160. Weight measurements were made ever other day.
Two days after the completion of drug treatments animal walking gait was analyzed according to a) total imprint area, and b) total number of contact points.
FIG. 6 illustrates the effect of Compound 1 on H-reflex amplitude, a measurement of H/M wave disturbance induced by Taxol™. Two days after the completion of drug treatments, the dorsal root ganglia and attached nerves were dissected bilaterally from L4 and L5 and their H/M wave conductance measured.

CA II = CA II (Homo sapiens, UniProt P00918); assay: CA II inhibition; assay type: biochemical; conditions: read-out: CAII(50)
Protocol: CA II inhabition was measured using the protocol described by Pocker, Y.'Stone, J. Biochemistry 1967, 6, 668.

sciatic nerve = assay: Sciatic nerve crush injury model; assay type: in vivo, Sprague Dawley rats
From the text: The sciatic nerve crush model is a representative model of axonal repair and regeneration. The sciatic nerve is physically crushed with forceps at the mid-thigh; only the right leg is injured, the left leg serving as a control. The axons die from the crush point to their point of innervation. Functional loss of the axons is rapidly observed as the animals drag their right leg and the toes of the right leg no longer spread. Recovery is observed in approximately 28 days as the animals regain use of their right leg. More quantitative measurements of recovery include toe spread measurements between the digits 1 and 5 and digits 2 and 4, gait analysis and electrical conductivity from the toes to the injury site (see Example 161). Male Sprague Dawley rats were anaesthetized (halothane and buprenorphine) and the right hind leg was blunt dissected to expose the sciatic nerve at mid-thigh. The nerve was crushed twice for a total of 30 seconds using No.7 Dumont jeweller's forceps. The incision is sutured and the animals are allowed to recover for 28 days. Functional recovery was measured by gait, nerve conductance and toe spread measurements between digits 1 and 5 and digits 2 and 4.

[1] = tested on: human ovarian carcinoma cells (OV2008); assay: Co-treatment of OV2008 cell line with Taxol and compound 1; assay type: cell-based; conditions: Taxol™ (50 nM) + compound at 5, 10, 20 uM; Taxol™ and/or cisplatin
Protocol: H460 and OV2008 cells were plated and incubated for 48 hours. Compound 1 and/or compound 1 and Taxol™ were added. Viability was determined after 24 hours, staining with MTT (Promega).
FIG. 3 illustrates the co-treatment of H460 and OV 2008 cell lines with Taxol™ and compound 1. H460 lung carcinoma and OV2008 ovarian carcinoma cells were treated with Taxol™ (50 nM) and/or Taxol™ (50 nM)+compound 1 (noted as AEG 03482) at levels of 5, 10, and 20 uM.

SCG neurons [2] = assay: cells; conditions: Rattus norvegicus, Neuron, 48 h, read-out: IC50, protection of SCG neurons against cisplatin killing
Akt = Akt activity in PC12 cells and SCGs; assay type: cell-based
From the text: (§2) Additionally, the Erks protect cultured neurons from a number of insults including neurotrophin withdrawal (Bonni, A., et al., Science, 1999, 286, 1358-1362). […] Compound 1, therefore, protects neurons by activating a subset of NGF-stimulated signaling pathways.

SCG neurons [3] = assay: Protection of SCG neurons from anti-NGF killing; assay type: cell-based, Sprague Dawley rats; conditions: Rattus norvegicus, Neuron; anti-NGF antibody, serum and NGF free 48 hours, Alamar Blue; +/−1 uM; read-out: IC(50), rescue from anti-NGF killing of SCG neurons
SCG neurons [4] = assay: In vitro protection of SCG neurons from vincristine killing; assay type: cell-based, Sprague Dawley rats; conditions: Rattus norvegicus, Neuron; vincristine (50 ng/mL), 48 hours, MTS; ±1 μM; read-out: IC50, protection of SCG neurons against Vincristine killing
From the text: Similarly, vincristine and vinblastine are commonly used anti-tumour agents whose mode of action involve tubulin binding.

[5] = Acute toxicity studies with compound 1 alone; assay type: in vivo; conditions: compound alone, 1, 5, and 10 mg/kg for 3 weeks
Protocol: as §1

Erk = Erk activity in PC12 cells and sympathetic neurons; assay type: cell-based; conditions: PC12 cells and primary cultures of sympathetic neurons
From the text: as §2

[6] = 5 mg/kg with Taxol™ (9 mg/kg), bi-weekly

NS(=O)(=O)c1nn2cc(-c3ccccc3)nc2s1 [Compound 1, 6-Phenylimidazo[2,1-b]-1,3,4-thiadiazole-2-sulfonamide]
loss in foot pad contact (Sprague Dawley rats; [6]): 23%
weight gain as compared to control (Sprague Dawley rats; [6]): normal weight gain
H/M wave disturbance induced by Taxol™ (H-reflex amplitude) (Sprague Dawley rats; two days after completion of drug treatments): caused a reversal in H/M wave disturbance
Taxol™ induced gait disturbance (Sprague Dawley rats; two days after completion of drug treatments, total imprint area, number of contact points): prevented Taxol™ induced gait disturbance
pIC50 (CA II): 6.60
functional recovery after sciatic nerve crush (sciatic nerve; 1 and 10 mg/kg): improved recovery
recovery in toe spread area (inner toe spread) (sciatic nerve; versus vehicle control): induced increased recovery
protection of OV2008 cells from Taxol™ induced apoptosis [1]: no protection; also recorded: did not protect
pIC50 (SCG neurons [2]): 5.30
activity of Akt (Akt): remained unchanged
pIC50 (SCG neurons [3]): 4.66
pIC50 (SCG neurons [4]): 5.00
acute signs of toxicity [5]: No acute signs of toxicity
Erk activity (Erk): dramatic increase
